Source: paper PMC10612037 (Viruses, 2023)
Counter-ions that a name gives are not always drawn.

How the values were obtained:
HIV-1 xxLAI = assay: microbe, parasite or virus in culture; assay type: cell-based; conditions: Human immunodeficiency virus 1; unpassaged HIV-1 xxLAI WT stock virus
[1] = tested on: HIV-1 isolates B, C, CRF_AE, CRF_AG; assay type: cell-based
HIV-1 RT = tested on: HIV-1 RT; set-up: method as in earlier work; conditions: K65R RT; cited from earlier work
[2] = cited from earlier work
[3] = tested on: HIV-1 subtypes A, B, C, D, CRF_AE, CRF_AG; assay: Dose-response assay in TZM-GFP cells, diverse primary isolates
HIV-1 NL4-3 = assay: Dose-response assay in TZM-GFP cells, NL4-3 molecular clones with RT mutations; conditions: for major resistance observed: all NL4-3 mutants tested, major = >12-fold for ISL, >4-fold for TDF
[4] = tested on: HIV-1 reverse transcriptase (endogenous RT in virions); assay: Endogenous reverse transcriptase assay; assay type: biochemical; conditions: K65R virions

| Structure (SMILES) | EC50 (HIV-1 xxLAI) [nM] | fold more susceptible, K65R with Ser68 vs K65R with Gly68 ([1]; CRF_AE backbone) [fold] | susceptibility of Ser68 compared with Gly68 ([1]; CRF_AE backbone) | sensitivity of mutant relative to WT ([1]; K65R, regardless of the isolate (B, C, CRF_AE, CRF_AG)) | fold more susceptible than wildtype RT (HIV-1 RT) [fold] | tolerability ([2]; early clinical studies in humans) | effect on CD4 T cell population ([2]; lower dose of ISL) | effect on CD4 T cells ([2]; subsequent clinical studies, patients on ISL) | EC50 fold change from NL4-3 ([3]; all subtypes (A, B, C, D, CRF_AE, CRF_AG), 8-10 isolates each) | fold more sensitive than WT (EC50) (HIV-1 NL4-3; NL4-3 K65R) [fold] | major resistance observed (HIV-1 NL4-3) | resistance phenotype (IC50 fold change from WT) [4] | EC50 fold change from NL4-3 ([3]; subtype A) [fold] | EC50 fold change from NL4-3 ([3]; subtype B) [fold] | EC50 fold change from NL4-3 ([3]; subtype C) [fold] | EC50 fold change from NL4-3 ([3]; subtype D) [fold] | fold resistance relative to WT (EC50 fold change) (HIV-1 NL4-3; NL4-3 K65R) [fold] |
| --- | --- | --- | --- | --- | --- | --- | --- | --- | --- | --- | --- | --- | --- | --- | --- | --- | --- |
| C#C[C@]1(CO)O[C@@H](n2cnc3c(N)nc(F)nc32)C[C@@H]1O [ISL, 4′-ethynyl-2-fluoro-2′-deoxyadensine] | 3.6 | 3 | more susceptible | hypersensitivity | 4 | well tolerated | without any effects on the CD4 T cell population | decline in CD4 T cells | no more than 1.3 fold | 4 | No major resistance |  |  |  |  |  |  |
| C[C@@H](Cn1cnc2c(N)ncnc21)OCP(=O)(O)OP(=O)(O)OP(=O)(O)O [TFV-DP] |  |  |  |  |  |  |  |  |  |  |  | conferred resistance |  |  |  |  |  |
| CC(C)OC(=O)OCOP(=O)(CO[C@H](C)Cn1cnc2c(N)ncnc21)OCOC(=O)OC(C)C [TDF, Tenofovir disoproxil fumarate] | 24.6 |  |  |  |  |  |  |  |  |  | No major resistance |  | 1.3 | 2.2 | 2.2 | 1.6 | 3 |
